Measurements published in ChEMBL document CHEMBL1201862, “PubChem BioAssay data set” (2004).
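Method: 48-hour compound exposure of cells in 96-well plates, five concentrations, linear interpolation of endpoints. Here, GI50 denotes the concentration required for 50% inhibition of growth.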 Active and inactive are the calls of the source. Cut-off read from the data, not from the text of the source: active = GI50 up to about 1.1 µM and inactive = higher.

Key:
Experiment in all cases: NCI anticancer screen, dose series, 48 h
RXF 631 = system: RXF 631
SNB-78 = system: SNB-78
HOP-18 = system: HOP-18
DMS-114 = system: DMS-114
XF498 = system: XF498
M19-MEL = system: M19-MEL
KM-20L2 = system: KM-20L2
DMS-273 = system: DMS-273
DLD-1 = system: DLD-1

Compound | GI50 (RXF 631) | GI50 (SNB-78) | GI50 (HOP-18) | GI50 (DMS-114) | GI50 (XF498) | GI50 (M19-MEL) | GI50 (KM-20L2) | GI50 (DMS-273) | GI50 (DLD-1)
NC(=O)c1ncn(C2OC(CO)C(O)C2O)c1O (stereo not drawn) | > 100 µM (inactive) | > 100 µM (inactive) | 53.7 µM (inactive) | > 100 µM (inactive) | > 100 µM (inactive) | > 100 µM (inactive) | 34.8 µM (inactive) |  | 
CCN(CC)C(=S)N/N=C(\C)c1ccccc1O | 35.2 µM (inactive) | > 100 µM (inactive) | 26.2 µM (inactive) | 11.9 µM (inactive) |  | 39.9 µM (inactive) | 21.4 µM (inactive) | 12.9 µM (inactive) | 17.8 µM (inactive)
Nc1ccc(C(=O)N/C(=C\C=C\c2ccco2)c2nc3c4c(ccc3[nH]2)C(=O)c2ccccc2C4=O)cc1 | 32.8 µM (inactive) | 64.6 µM (inactive) | 11.4 µM (inactive) | 18.5 µM (inactive) | > 100 µM (inactive) | 79.6 µM (inactive) | 55.6 µM (inactive) | 29.5 µM (inactive) | 13.3 µM (inactive)
CCCCCCCCCCCCOC(=N)N1CCOCC1 | 8.18 µM (inactive) | 6.59 µM (inactive) | 2 µM (inactive) | 6.7 µM (inactive) | 13.3 µM (inactive) | 5.22 µM (inactive) | 3.43 µM (inactive) | 9.55 µM (inactive) | 3.3 µM (inactive)
O=C1C(c2ccccc2)=C(c2ccccc2)C(c2ccc(Cc3ccc(C4=C(c5ccccc5)C(=O)C(c5ccccc5)=C4c4ccccc4)cc3)cc2)=C1c1ccccc1 |  | > 100 µM (inactive) | > 100 µM (inactive) | > 100 µM (inactive) | > 100 µM (inactive) | > 100 µM (inactive) | > 100 µM (inactive) | > 100 µM (inactive) | > 100 µM (inactive)
COC(=O)C(=O)C(C#N)c1ccc(Cl)c(Cl)c1 (stereo not drawn) | > 100 µM (inactive) | > 100 µM (inactive) |  |  | > 100 µM (inactive) | > 100 µM (inactive) | > 100 µM (inactive) | > 100 µM (inactive) | > 100 µM (inactive)
NC(CCCCN/C=C1/N=C(c2ccccc2)OC1=O)C(=O)O (stereo not drawn) |  | > 100 µM (inactive) |  | > 100 µM (inactive) | > 100 µM (inactive) | > 100 µM (inactive) | > 100 µM (inactive) | > 100 µM (inactive) | > 100 µM (inactive)
CC(C)c1cccc(C(C)C)c1NC(=O)C(=O)Cc1nc2ccc([N+](=O)[O-])cc2nc1O | 40.8 µM (inactive) |  | > 100 µM (inactive) | 10.5 µM (inactive) |  | 80.9 µM (inactive) | 20.1 µM (inactive) | 44.4 µM (inactive) | > 100 µM (inactive)
C/C(=N\NC(=N)N)C(CN(CC(C)C)CC(C)C)C(=O)Nc1ccc(C)cc1C (stereo not drawn) | > 100 µM (inactive) | > 100 µM (inactive) | > 100 µM (inactive) | > 100 µM (inactive) | 59.6 µM (inactive) | > 100 µM (inactive) | > 100 µM (inactive) | > 100 µM (inactive) | > 100 µM (inactive)
COC(=O)NC(=O)c1cn(C2OC(CO)C(O)C2O)c(=O)[nH]c1=O (stereo not drawn) |  | > 100 µM (inactive) |  |  |  | > 100 µM (inactive) | > 100 µM (inactive) |  | > 100 µM (inactive)
CN(C)CCNC(=O)c1c2ccccc2cc2ccccc12 |  | 55.3 µM (inactive) | > 100 µM (inactive) | 53.1 µM (inactive) | 19.5 µM (inactive) | 33.2 µM (inactive) | 37.7 µM (inactive) | 33 µM (inactive) | 41.8 µM (inactive)
NNC(=O)C(=O)N/N=C(\CCC(=O)Nc1ccc(Cl)cc1)Cc1nc2ccccc2s1 |  | 70.5 µM (inactive) | 5.33 µM (inactive) | 19.1 µM (inactive) |  | 17.4 µM (inactive) | 45.5 µM (inactive) | 15.5 µM (inactive) | 
O=C(N/C(=C\c1ccc([N+](=O)[O-])cc1)c1nc2c(O)nc(S)nc2[nH]1)c1ccccc1 |  | > 100 µM (inactive) |  | 77.3 µM (inactive) | > 100 µM (inactive) | > 100 µM (inactive) | > 100 µM (inactive) |  | 53.7 µM (inactive)
O=C1CCCC2=C(N1)C(=O)C=CC2=O | > 100 µM (inactive) | > 100 µM (inactive) | > 100 µM (inactive) | > 41.7 µM (inactive) | > 100 µM (inactive) | > 100 µM (inactive) | > 100 µM (inactive) | > 100 µM (inactive) | > 53.2 µM (inactive)
c1ccc(C2=NN(c3ccccc3)C3(S2)SC(c2ccccc2)(c2ccccc2)c2ccccc23)cc1 (stereo not drawn) |  | > 100 µM (inactive) |  | > 100 µM (inactive) | > 100 µM (inactive) | > 100 µM (inactive) | > 100 µM (inactive) | > 100 µM (inactive) | > 100 µM (inactive)
CC(=O)NNc1nc(C)c(C(=O)/C=C/c2ccccc2Cl)s1 | > 100 µM (inactive) | > 100 µM (inactive) | > 100 µM (inactive) | > 100 µM (inactive) |  | > 100 µM (inactive) | > 100 µM (inactive) | > 100 µM (inactive) | > 100 µM (inactive)
OCCN(CCO)c1cccc(N(CCO)CCO)c1 | > 100 µM (inactive) | > 100 µM (inactive) |  | > 100 µM (inactive) | > 100 µM (inactive) | > 100 µM (inactive) | 38.5 µM (inactive) | > 100 µM (inactive) | > 100 µM (inactive)
O=c1c2ccccc2c(=O)n2n1-c1cccc(c1)CSSCc1cccc-2c1 | > 10 µM (inactive) | 62.1 µM (inactive) | > 10 µM (inactive) | > 10 µM (inactive) | 62.2 µM (inactive) | > 10 µM (inactive) | > 100 µM (inactive) | > 10 µM (inactive) | > 10 µM (inactive)
O=C(CC1C(=O)Nc2ccccc2[S+]1[O-])Nc1ccc(Cl)cc1 (stereo not drawn) |  | 53.7 µM (inactive) |  |  |  |  | > 100 µM (inactive) | > 100 µM (inactive) | > 100 µM (inactive)
COc1cc(C2c3cc4c(cc3[C@@H](Nc3ccc([N+](=O)[O-])cc3)C3COC(=O)[C@H]23)OCO4)cc(OC)c1O (stereo partly drawn) | 1.6 µM (inactive) | 5.68 µM (inactive) | 11.2 µM (inactive) | 1.52 µM (inactive) | 2.07 µM (inactive) | 3.06 µM (inactive) | 2.12 µM (inactive) | 0.555 µM (active) | 
